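Interpolation was linear, between the two tested concentrations surrounding the appropriate level; five concentrations were tested over 48 hours in 96-well plates. TGI: concentration producing complete growth inhibition.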 Where only a bound is given, the exact number is not on record here.

Some test systems named below: SN12K1 renal; SNB-78 CNS; M19-MEL melanoma; DLD-1 colon; P388 leukemia; HOP-18 NSCLC; P388/ADR leukemia; DMS 273 small cell lung; XF 498 CNS; LXFL 529 NSCLC.
Common to all, as to assay: NCI tumour cell line growth inhibition, 48 h

As for `C#CCn1c(=O)c(C#N)c(O)c2cc3ccccc3nc21`, the TGI in the experiment with SN12K1 renal, in the experiment on SNB-78 CNS, in the experiment with M19-MEL melanoma, in the experiment with DLD-1 colon, with P388 leukemia and in the experiment with HOP-18 NSCLC was over 100 µM each time. Besides, the TGI in the experiment on P388/ADR leukemia, in the experiment with DMS 273 small cell lung and with XF 498 CNS was over 100 µM throughout.
For the compound `CC1(Cl)CC2C(CC1Sc1nnnn1-c1ccccc1)C2(C)C` (configuration not stated), the TGI in the experiment with LXFL 529 NSCLC, in the experiment with SNB-78 CNS, in the experiment with M19-MEL melanoma, in the experiment with DLD-1 colon and in the experiment on DMS 273 small cell lung was over 100 µM each time.
In the case of `COc1cc2c(cc1OC)-c1c3c(cc4c1[C@@H](C2)N(C)CC4)OCO3`, the TGI in the experiment with SN12K1 renal is 22.3 µM; in the experiment on SNB-78 CNS, 43.9 µM; in the experiment on M19-MEL melanoma it was 24.1 µM; in the experiment with DLD-1 colon it was 49.5 µM; in the experiment with P388 leukemia it was 27.1 µM; in the experiment on HOP-18 NSCLC, 52 µM. Besides, the TGI in the experiment with P388/ADR leukemia worked out at 23.3 µM; in the experiment with DMS 273 small cell lung, 14.5 µM.
Take `NCCCCNCCCNC(=O)c1nc(-c2csc(CCN)n2)sc1Cl`: the TGI was 45.6 µM in the experiment on LXFL 529 NSCLC; over 100 µM in the experiment with SNB-78 CNS; over 100 µM with M19-MEL melanoma; over 100 µM in the experiment on DLD-1 colon; over 100 µM with DMS 273 small cell lung; over 100 µM in the experiment with XF 498 CNS.
For `CC(=O)Oc1ccc(C2COc3cc(OC(C)=O)c(OC(C)=O)cc3C2)cc1` (configuration not stated), the TGI in the experiment with SN12K1 renal was found to be 35.9 µM; in the experiment with SNB-78 CNS, 80.2 µM; in the experiment with M19-MEL melanoma, 33.2 µM; in the experiment on DLD-1 colon it was 38 µM; with P388 leukemia it was 37.1 µM; in the experiment with HOP-18 NSCLC, 46.8 µM. For the same compound, the TGI in the experiment with P388/ADR leukemia is over 53.6 µM; with DMS 273 small cell lung, 61.6 µM; in the experiment with XF 498 CNS it was 25.9 µM.
